This assay addresses T1, Wee1 kinase (Homo sapiens, UniProt P30291).
T1 construct: purchased Carnabio 05-177
Kind of assay: Wee1 time-resolved fluorescence equilibrium binding assay (probe displacement). The settings on record: GST-tagged-Wee1 kinase 2 nM, fluorescent probe 300 nM, 1 hour incubation; read-out: Wee-1 binding (Ki nM). Here is the method: Wee1 kinase was assayed using a time-resolved fluorescence equilibrium binding assay monitoring displacement of a rapidly reversible Oregon Green-labeled ATP-competitive kinase probe (N-(2-(2-(2-(4-(4-(5-chloro-4-(2-(1-hydroxycyclobutyl)thiazol-5-yl)-1H-pyrrolo[2,3-b]pyridin-2-yl)phenyl)piperazin-1-yl)ethoxy)ethoxy)ethyl)-2′,7′-difluoro-3′,6′-dihydroxy-3-oxo-3H-spiro[isobenzofuran-1,9′-xanthene]-5-carboxamide) by competitive Wee1 inhibitors.
T1 sequence (P30291 whole entry): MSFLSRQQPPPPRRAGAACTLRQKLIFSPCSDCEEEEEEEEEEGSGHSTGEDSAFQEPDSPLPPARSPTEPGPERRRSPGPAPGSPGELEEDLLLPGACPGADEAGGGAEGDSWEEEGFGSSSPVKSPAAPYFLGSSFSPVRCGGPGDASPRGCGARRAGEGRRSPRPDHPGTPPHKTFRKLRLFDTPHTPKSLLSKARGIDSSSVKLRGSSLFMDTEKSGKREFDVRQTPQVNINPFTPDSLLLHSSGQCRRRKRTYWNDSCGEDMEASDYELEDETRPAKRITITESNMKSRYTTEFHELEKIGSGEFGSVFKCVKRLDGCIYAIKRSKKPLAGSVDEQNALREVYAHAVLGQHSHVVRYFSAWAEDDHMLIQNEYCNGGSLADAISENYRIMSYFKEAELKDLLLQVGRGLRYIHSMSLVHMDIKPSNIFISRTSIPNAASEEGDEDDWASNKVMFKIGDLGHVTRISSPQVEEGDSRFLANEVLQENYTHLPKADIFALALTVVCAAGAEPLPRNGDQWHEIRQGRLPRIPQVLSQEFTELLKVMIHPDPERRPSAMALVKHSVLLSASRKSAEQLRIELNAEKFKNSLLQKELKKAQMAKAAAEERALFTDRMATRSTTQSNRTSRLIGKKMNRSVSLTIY
For the molecule `CN1CCN(c2ccc(Nc3ncc4c(=O)c(-c5c(F)cccc5Cl)cn(C)c4n3)cc2)CC1` [Example 33, 6-(2-chloro-6-fluorophenyl)-8-methyl-2-{[4-(4-methylpiperazin-1-yl)phenyl]amino}pyrido[2,3-d]pyrimidin-5(8H)-one], the Ki is 1.5 nM. For `CN1CCN(c2ccc(Nc3ncc4c(=O)c(-c5c(Cl)cccc5Cl)cn(-c5ccncc5)c4n3)cc2)CC1` [Example 7, 6-(2,6-dichlorophenyl)-2-{[4-(4-methylpiperazin-1-yl)phenyl]amino}-8-(pyridin-4-yl)pyrido[2,3-d]pyrimidin-5(8H)-one] the value was 0.6 nM; for `CN(C)C1Cc2ccc(Nc3ncc4c(=O)c(-c5c(Cl)cccc5Cl)cn(C5CC5)c4n3)cc2C1` (stereo not drawn) [Example 25, 8-cyclopropyl-6-(2,6-dichlorophenyl)-2-{[2-(dimethylamino)-2,3-dihydro-1H-inden-5-yl]amino}pyrido[2,3-d]pyrimidin-5(8H)-one], 1.2 nM. In the case of `CN(C)C1Cc2ccc(Nc3ncc4c(=O)c(-c5c(Cl)cccc5Cl)cn(C)c4n3)cc2C1` (stereo not drawn) [Example 22, 6-(2,6-dichlorophenyl)-2-{[2-(dimethylamino)-2,3-dihydro-1H-inden-5-yl]amino}-8-methylpyrido[2,3-d]pyrimidin-5(8H)-one], the Ki was determined as 0.6 nM. As for `Cn1cc(-c2c(F)cccc2Cl)c(=O)c2cnc(Nc3ccc4c(c3)CCNC4)nc21` [Example 75, 6-(2-chloro-6-fluorophenyl)-8-methyl-2-(1,2,3,4-tetrahydroisoquinolin-6-ylamino)pyrido[2,3-d]pyrimidin-5(8H)-one], the Ki stood at 1.3 nM. For `Cn1cc(-c2c(Cl)cccc2Cl)c(=O)c2cnc(Nc3ccc4c(c3)CC(N3CCCC3)C4)nc21` (stereo not drawn) [Example 55, 6-(2,6-dichlorophenyl)-8-methyl-2-{[2-(pyrrolidin-1-yl)-2,3-dihydro-1H-inden-5-yl]amino}pyrido[2,3-d]pyrimidin-5(8H)-one] the value was 0.4 nM; for `CN1Cc2cc(Nc3ncc4c(=O)c(-c5c(Cl)cccc5Cl)cn(C)c4n3)ccc2C(C)(C)C1` [Example 20, 6-(2,6-dichlorophenyl)-8-methyl-2-[(2,4,4-trimethyl-1,2,3,4-tetrahydroisoquinolin-7-yl)amino]pyrido[2,3-d]pyrimidin-5(8H)-one], 0.3 nM.

Regarding `CN1CCN(c2ccc(Nc3ncc4c(=O)c(-c5c(F)cccc5Cl)c[nH]c4n3)cc2)CC1` [Example 40, 6-(2-chloro-6-fluorophenyl)-2-{[4-(4-methylpiperazin-1-yl)phenyl]amino}pyrido[2,3-d]pyrimidin-5(8H)-one], the Ki was 2.4 nM. The same measure for `Cn1cc(-c2c(Cl)cccc2Cl)c(=O)c2cnc(Nc3ccc4c(c3)C(=O)NC4=O)nc21` [Example 56, 5-{[6-(2,6-dichlorophenyl)-8-methyl-5-oxo-5,8-dihydropyrido[2,3-d]pyrimidin-2-yl]amino}-1H-isoindole-1,3(2H)-dione]: 27 nM; for `Cn1cc(-c2c(Cl)cccc2Cl)c(=O)c2cnc(Nc3ccc4c(c3)CNCC43CC3)nc21` [Example 21, 6-(2,6-dichlorophenyl)-2-(2′,3′-dihydro-1′H-spiro[cyclopropane-1,4′-isoquinolin]-7′-ylamino)-8-methylpyrido[2,3-d]pyrimidin-5(8H)-one]: 0.3 nM. For `CN1CCN(c2ccc(Nc3ncc4c(=O)c(-c5c(Cl)cccc5Cl)cn(CC(F)(F)F)c4n3)cc2)CC1` [Example 11, 6-(2,6-dichlorophenyl)-2-{[4-(4-methylpiperazin-1-yl)phenyl]amino}-8-(2,2,2-trifluoroethyl)pyrido[2,3-d]pyrimidin-5(8H)-one] the value was 3 nM; for `COc1ccc(Cn2cc(-c3c(F)cccc3Cl)c(=O)c3cnc(Nc4ccc5c(c4)CN(C)CC54CC4)nc32)cc1` [Example 36, 6-(2-chloro-6-fluorophenyl)-8-(4-methoxybenzyl)-2-[(2′-methyl-2′,3′-dihydro-1′H-spiro[cyclopropane-1,4′-isoquinolin]-7′-yl)amino]pyrido[2,3-d]pyrimidin-5(8H)-one], 33 nM. For `O=c1c(-c2c(Cl)cccc2Cl)cn(C2CC2)c2nc(Nc3ccc4c(c3)CNCC43CC3)ncc12` [Example 24, 8-cyclopropyl-6-(2,6-dichlorophenyl)-2-(2′,3′-dihydro-1′H-spiro[cyclopropane-1,4′-isoquinolin]-7′-ylamino)pyrido[2,3-d]pyrimidin-5(8H)-one] the value was 0.8 nM; for `CN1CCc2ccc(Nc3ncc4c(=O)c(-c5c(Cl)cccc5Cl)cn(C)c4n3)cc2C1` [Example 52, 6-(2,6-dichlorophenyl)-8-methyl-2-[(2-methyl-1,2,3,4-tetrahydroisoquinolin-7-yl)amino]pyrido[2,3-d]pyrimidin-5(8H)-one], 0.5 nM.

As for `CN1CCN(c2ccc(Nc3ncc4c(=O)c(-c5c(Cl)cccc5Cl)cn(C5CC5)c4n3)cc2)CC1` [Example 10, 8-cyclopropyl-6-(2,6-dichlorophenyl)-2-{[4-(4-methylpiperazin-1-yl)phenyl]amino}pyrido[2,3-d]pyrimidin-5(8H)-one], the Ki is under 1 nM. For `Cn1cc(-c2c(Cl)cccc2Cl)c(=O)c2cnc(Nc3ccc4c(c3)CNC4(C)C)nc21` [Example 65, 6-(2,6-dichlorophenyl)-2-[(1,1-dimethyl-2,3-dihydro-1H-isoindol-5-yl)amino]-8-methylpyrido[2,3-d]pyrimidin-5(8H)-one] the value was 0.3 nM; for `CN1Cc2cc(Nc3ncc4c(=O)c(-c5c(Cl)cccc5Cl)cn(C5CC5)c4n3)ccc2C(C)(C)C1` [Example 23, 8-cyclopropyl-6-(2,6-dichlorophenyl)-2-[(2,4,4-trimethyl-1,2,3,4-tetrahydroisoquinolin-7-yl)amino]pyrido[2,3-d]pyrimidin-5(8H)-one], 0.8 nM; for `Cn1cc(-c2c(Cl)cccc2Cl)c(=O)c2cnc(Nc3ccc(N[C@@H]4CCNC4)cc3)nc21` [Example 63, 6-(2,6-dichlorophenyl)-8-methyl-2-({4-[(3R)-pyrrolidin-3-ylamino]phenyl}amino)pyrido[2,3-d]pyrimidin-5(8H)-one], 0.7 nM. The same measure for `COC(=O)c1cc(Nc2ncc3c(=O)c(-c4c(Cl)cccc4Cl)cn(C)c3n2)ccc1N1CCN(C)CC1` [Example 71, methyl 5-{[6-(2,6-dichlorophenyl)-8-methyl-5-oxo-5,8-dihydropyrido[2,3-d]pyrimidin-2-yl]amino}-2-(4-methylpiperazin-1-yl)benzoate]: 0.7 nM; for `CN1CCN(c2ccc(Nc3ncc4c(=O)c(-c5c(Cl)cccc5Cl)c[nH]c4n3)cc2)CC1` [Example 18, 6-(2,6-dichlorophenyl)-2-{[4-(4-methylpiperazin-1-yl)phenyl]amino}pyrido[2,3-d]pyrimidin-5(8H)-one]: 0.3 nM. Take `Cn1cc(-c2c(Cl)cccc2Cl)c(=O)c2cnc(Nc3cc4c(s3)CCNC4)nc21` [Example 58, 6-(2,6-dichlorophenyl)-8-methyl-2-(4,5,6,7-tetrahydrothieno[3,2-c]pyridin-2-ylamino)pyrido[2,3-d]pyrimidin-5(8H)-one]: the Ki was 0.4 nM. The same measure for `CN1CCN(c2ccc(Nc3ncc4c(=O)c(-c5ccccc5Cl)c[nH]c4n3)cc2)CC1` [Example 1, 6-(2-chlorophenyl)-2-{[4-(4-methylpiperazin-1-yl)phenyl]amino}pyrido[2,3-d]pyrimidin-5(8H)-one]: 9.5 nM; for `CN1Cc2cc(Nc3ncc4c(=O)c(-c5c(F)cccc5Cl)cn(C)c4n3)ccc2C1(C)C` [Example 70, 6-(2-chloro-6-fluorophenyl)-8-methyl-2-[(1,1,2-trimethyl-2,3-dihydro-1H-isoindol-5-yl)amino]pyrido[2,3-d]pyrimidin-5(8H)-one]: 0.2 nM. The same measure for `Cn1cc(-c2c(Cl)cccc2Cl)c(=O)c2cnc(N)nc21` [Example 45, 2-amino-6-(2,6-dichlorophenyl)-8-methylpyrido[2,3-d]pyrimidin-5(8H)-one]: 180 nM; for `Cn1cc(-c2c(Cl)cccc2Cl)c(=O)c2cnc(Nc3ccc(NC4CCNCC4)cc3)nc21` [Example 66, 6-(2,6-dichlorophenyl)-8-methyl-2-{[4-(piperidin-4-ylamino)phenyl]amino}pyrido[2,3-d]pyrimidin-5(8H)-one]: 0.4 nM.

`CN1Cc2cc(Nc3ncc4c(=O)c(-c5c(Cl)cccc5Cl)cn(C5CC5)c4n3)ccc2C2(CC2)C1` [Example 17, 8-cyclopropyl-6-(2,6-dichlorophenyl)-2-[(2′-methyl-2′,3′-dihydro-1′H-spiro[cyclopropane-1,4′-isoquinolin]-7′-yl)amino]pyrido[2,3-d]pyrimidin-5(8H)-one]: the Ki was 0.2 nM. For `CN1CCN(c2ccc(Nc3ncc4c(=O)c(-c5c(Cl)cccc5Cl)c5n(c4n3)CCC5)cc2)CC1` [Example 6, 6-(2,6-dichlorophenyl)-2-{[4-(4-methylpiperazin-1-yl)phenyl]amino}-8,9-dihydropyrimido[4,5-e]indolizin-5(7H)-one] the value was 5.7 nM; for `CN1Cc2cc(Nc3ncc4c(=O)c(-c5c(Cl)cccc5Cl)cn(C)c4n3)ccc2C1(C)C` [Example 60, 6-(2,6-dichlorophenyl)-8-methyl-2-[(1,1,2-trimethyl-2,3-dihydro-1H-isoindol-5-yl)amino]pyrido[2,3-d]pyrimidin-5(8H)-one], 0.2 nM; for `CC(C)n1cc(-c2c(Cl)cccc2Cl)c(=O)c2cnc(Nc3ccc(N4CCN(C)CC4)cc3)nc21` [Example 26, 6-(2,6-dichlorophenyl)-2-{[4-(4-methylpiperazin-1-yl)phenyl]amino}-8-(propan-2-yl)pyrido[2,3-d]pyrimidin-5(8H)-one], 1.2 nM.

On to `CN(C)CCCN1CCN(c2ccc(Nc3ncc4c(=O)c(-c5c(Cl)cccc5Cl)cn(C)c4n3)cc2)CC1` [Example 78, 6-(2,6-dichlorophenyl)-2-[(4-{4-[3-(dimethylamino)propyl]piperazin-1-yl}phenyl)amino]-8-methylpyrido[2,3-d]pyrimidin-5(8H)-one], for which the Ki amounted to 1.2 nM.
